PMC4942689, “Deciphering the function of the CNGB1b subunit in olfactory CNG channels” (Scientific Reports, 2016)
Several values for one entry are separate records, joined by “and”; a condition that tells them apart may be missing. Equal entries are not always repeated. Where two headings read alike, the source gives them in different places.

Legend:
CNGA2RE:A4RE:B1b = target: T1, CNGA2RE:A4RE:B1b (Rattus norvegicus, UniProt A0A8I5ZN27+Q00195+Q64359, R430E/R538E); experiment: Concentration-activation relationship and activation by fluorescent ligands, patch-clamp; type: biochemical
T1 construct: expressed in transfected cells; host or cells: Xenopus laevis oocytes (cRNA injection), excised inside-out patches
T1 sequence (Q00195 whole entry R538E): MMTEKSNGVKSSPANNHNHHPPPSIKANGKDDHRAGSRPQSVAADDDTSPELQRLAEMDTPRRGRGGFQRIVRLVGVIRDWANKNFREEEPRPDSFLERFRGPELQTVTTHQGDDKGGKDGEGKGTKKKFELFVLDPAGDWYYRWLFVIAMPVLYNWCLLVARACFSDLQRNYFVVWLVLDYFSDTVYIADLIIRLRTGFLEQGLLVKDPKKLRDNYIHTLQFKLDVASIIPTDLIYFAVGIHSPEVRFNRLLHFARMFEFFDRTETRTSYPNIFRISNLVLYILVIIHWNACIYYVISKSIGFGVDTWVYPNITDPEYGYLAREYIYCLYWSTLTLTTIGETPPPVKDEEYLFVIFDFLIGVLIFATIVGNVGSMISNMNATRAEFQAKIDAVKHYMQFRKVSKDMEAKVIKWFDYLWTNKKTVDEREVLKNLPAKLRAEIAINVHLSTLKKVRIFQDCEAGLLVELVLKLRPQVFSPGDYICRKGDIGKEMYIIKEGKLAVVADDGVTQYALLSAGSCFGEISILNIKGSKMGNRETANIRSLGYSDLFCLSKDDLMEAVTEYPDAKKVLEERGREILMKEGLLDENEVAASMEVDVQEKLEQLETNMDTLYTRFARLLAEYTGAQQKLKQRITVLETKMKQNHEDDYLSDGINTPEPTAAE
T1 sequence (Q64359 whole entry R430E): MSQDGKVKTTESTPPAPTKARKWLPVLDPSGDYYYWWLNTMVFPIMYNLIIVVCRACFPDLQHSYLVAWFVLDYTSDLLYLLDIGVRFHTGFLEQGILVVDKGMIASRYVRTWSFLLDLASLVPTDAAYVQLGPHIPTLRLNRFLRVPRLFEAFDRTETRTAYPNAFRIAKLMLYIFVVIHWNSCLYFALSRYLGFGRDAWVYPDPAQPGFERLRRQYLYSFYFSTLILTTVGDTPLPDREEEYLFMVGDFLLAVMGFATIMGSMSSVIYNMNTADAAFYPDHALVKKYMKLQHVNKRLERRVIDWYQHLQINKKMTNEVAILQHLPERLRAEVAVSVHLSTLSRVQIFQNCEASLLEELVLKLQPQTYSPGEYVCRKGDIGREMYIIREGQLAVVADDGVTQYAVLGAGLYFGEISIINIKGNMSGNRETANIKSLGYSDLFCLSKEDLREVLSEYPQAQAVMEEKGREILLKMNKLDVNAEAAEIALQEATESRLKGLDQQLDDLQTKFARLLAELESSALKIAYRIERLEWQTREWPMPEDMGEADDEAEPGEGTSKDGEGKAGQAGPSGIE
T1 sequence (A0A8I5ZN27 1-858 isoform A0A8I5ZN27-2, stated change not applied): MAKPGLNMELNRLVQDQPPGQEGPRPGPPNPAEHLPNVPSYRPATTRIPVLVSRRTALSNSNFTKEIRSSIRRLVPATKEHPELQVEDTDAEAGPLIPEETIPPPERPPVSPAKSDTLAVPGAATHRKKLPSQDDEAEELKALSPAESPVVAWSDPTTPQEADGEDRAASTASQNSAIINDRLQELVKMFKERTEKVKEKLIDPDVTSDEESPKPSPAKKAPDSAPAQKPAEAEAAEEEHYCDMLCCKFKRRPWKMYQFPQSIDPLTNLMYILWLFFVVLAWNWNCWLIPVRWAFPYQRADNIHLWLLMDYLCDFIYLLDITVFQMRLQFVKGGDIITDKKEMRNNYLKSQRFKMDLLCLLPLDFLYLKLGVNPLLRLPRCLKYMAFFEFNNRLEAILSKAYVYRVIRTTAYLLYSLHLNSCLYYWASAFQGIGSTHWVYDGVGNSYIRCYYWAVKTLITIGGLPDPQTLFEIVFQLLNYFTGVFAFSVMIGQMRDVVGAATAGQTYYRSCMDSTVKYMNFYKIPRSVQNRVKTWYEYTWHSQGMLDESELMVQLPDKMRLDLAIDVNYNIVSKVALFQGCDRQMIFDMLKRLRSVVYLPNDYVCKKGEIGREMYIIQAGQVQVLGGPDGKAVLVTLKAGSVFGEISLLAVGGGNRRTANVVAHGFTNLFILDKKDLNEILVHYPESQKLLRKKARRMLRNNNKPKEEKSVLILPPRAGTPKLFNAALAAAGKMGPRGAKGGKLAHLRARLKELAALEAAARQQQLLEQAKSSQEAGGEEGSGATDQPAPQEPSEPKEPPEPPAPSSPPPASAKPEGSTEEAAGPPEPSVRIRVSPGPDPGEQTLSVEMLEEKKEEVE
Protocol: In order to determine the apparent affinity of the modulatory subunits in heterotetrameric CNGA2:A4:B1b channels for cGMP, we coexpressed each of them with disabled neighbored subunits, generating themselves activation effects only at much higher ligand concentrations. In case of two well-separated current components, this would allow us to determine the EC50 value for the CNGB1b and CNGA4 subunit in functional heterotetrameric channels. Patch-clamp experiments were performed using an Axopatch 200B amplifier (Molecular Devices LLC, CA, U.S.A.) in the inside-out configuration. The patch pipettes for recording of macroscopic currents were pulled from borosilicate glass tubing (outer diameter 2.0 mm, inner diameter 1.0 mm; Hilgenberg GmbH, Germany). […] The patches were formed as pushed inside-out patches. […] Cyclic nucleotide concentration jumps were performed using a double-barreled glass pipette mounted on a piezo-driven device. Intracellular (bath) and extracellular (pipette) solutions contained (mM) 150 KCl, 1 EGTA, 5 Hepes, pH = 7.4 with KOH. […] Currents in the absence of the cyclic nucleotide were subtracted. All patches included in this study were first tested for channel expression in the presence of a saturating ligand concentration. Only patches with large current, i.e. a large number of channels, were included in our statistics. The currents were measured at +10 mV or, if mentioned, at +100 mV. Fits of equations to data points were performed with the 8.1G® software (OriginLab Corporation, Northampton, U.S.A.). Concentration-activation relationships were obtained by relating the actual current amplitude, I, to the maximum current amplitude elicited by a saturating concentration of ligand, Imax, and plotting this ratio as function of the ligand concentration, x.

CNGA2:A4:B1b channels = target: T2, CNGA2:A4:B1b channels (Rattus norvegicus, UniProt A0A8I5ZN27+Q00195+Q64359); experiment: Concentration-activation relationship, inside-out patch-clamp; type: biochemical; conditions: CNGA2:A4:B1b
T2 construct: expressed in transfected cells; host or cells: Xenopus laevis oocytes (cRNA injection 2:1:1), excised inside-out patches
T2 sequence (Q00195 whole entry): as the sequence (Q00195 whole entry R538E) above, with E538R counted along it
T2 sequence (Q64359 whole entry): as the sequence (Q64359 whole entry R430E) above, with E430R counted along it
T2 sequence (A0A8I5ZN27 1-858 isoform A0A8I5ZN27-2): as the sequence (A0A8I5ZN27 1-858 isoform A0A8I5ZN27-2, stated change not applied) above
Protocol: (§1) Patch-clamp experiments were performed using an Axopatch 200B amplifier (Molecular Devices LLC, CA, U.S.A.) in the inside-out configuration. The patch pipettes for recording of macroscopic currents were pulled from borosilicate glass tubing (outer diameter 2.0 mm, inner diameter 1.0 mm; Hilgenberg GmbH, Germany). The initial resistance was 0.7–1.3 MΩ. The patches were formed as pushed inside-out patches. […] Cyclic nucleotide concentration jumps were performed using a double-barreled glass pipette mounted on a piezo-driven device. Intracellular (bath) and extracellular (pipette) solutions contained (mM) 150 KCl, 1 EGTA, 5 Hepes, pH = 7.4 with KOH. […] Currents in the absence of the cyclic nucleotide were subtracted. All patches included in this study were first tested for channel expression in the presence of a saturating ligand concentration. Only patches with large current, i.e. a large number of channels, were included in our statistics. The currents were measured at +10 mV or, if mentioned, at +100 mV.
(§2) Fits of equations to data points were performed with the 8.1G® software (OriginLab Corporation, Northampton, U.S.A.). Concentration-activation relationships were obtained by relating the actual current amplitude, I, to the maximum current amplitude elicited by a saturating concentration of ligand, Imax, and plotting this ratio as function of the ligand concentration, x. The concentration-activation data were fitted using the Hill equation
where EC50 is the ligand concentration of half maximum effect and H the Hill coefficient.
In fHcAMP the dye DY547 is coupled to
(b) Concentration-activation relationships of the CNGA2:A4:B1b channels activated by either
The currents were recorded […]

[1] = system: homotetrameric CNGA2TM (T539M) channels; conditions: cited from earlier work
[2] = system: homotetrameric CNGA2RE (R538E) channels; design: method as in Nache et al., 2012; conditions: Equation 1, ref Nache et al., 2012; cited from earlier work
CNGA2RE:A4:B1b channels = target: T3, CNGA2RE:A4:B1b channels (Rattus norvegicus, UniProt A0A8I5ZN27+Q00195+Q64359, R538E); experiment: Concentration-activation relationship, patch-clamp; type: biochemical; conditions: for EC50: Equation 2, +100 mV
T3 construct: expressed in transfected cells; host or cells: Xenopus laevis oocytes (cRNA injection), excised inside-out patches
T3 sequence (Q00195 whole entry R538E): as the sequence (Q00195 whole entry R538E) above
T3 sequence (Q64359 whole entry): as the sequence (Q64359 whole entry R430E) above, with E430R counted along it
T3 sequence (A0A8I5ZN27 1-858 isoform A0A8I5ZN27-2, stated change not applied): as the sequence (A0A8I5ZN27 1-858 isoform A0A8I5ZN27-2, stated change not applied) above
Protocol: In order to consider the combined apparent affinity of CNGA4 and CNGB1b, we measured the concentration-response relationship of CNGA2RE:A4:B1b channels (Fig. 3c; Table 1).
as §1, §2
For the concentration-activation relationships showing two components, the data points were fitted to the sum of two Hill equations according to
EC50,h, EC50,l, Hh, and Hl are the ligand concentration of half maximum current and the Hill coefficient for the high and low affinity component, respectively. a and (1-a) denote the contribution of the high and low affinity component, respectively.

CNGB1b = system: CNGB1b; design: method as in Nache et al., 2012; key: +: ligand binding to the respective modulatory subunits was either observed or not; −: ligand binding to the respective modulatory subunits was either observed or not; conditions: 10 μM; construct CNGB1b; ref Nache et al., 2012; cited from earlier work
CNGA2TM:A4RE = system: CNGA2TM:A4RE; design: method as in Nache et al., 2012; key: +: ligand binding to the respective modulatory subunits was either observed or not; −: ligand binding to the respective modulatory subunits was either observed or not; conditions: 10 μM; construct CNGA2TM:A4RE; ref Nache et al., 2012; cited from earlier work

Row | Compound | H1 (CNGA2RE:A4RE:B1b; Hill coefficient of low affinity component, CNGA2RE:A4RE:B1b, +100 mV) | a (contribution of the high affinity component) (CNGA2RE:A4RE:B1b; fraction, CNGA2RE:A4RE:B1b, Equation 2) | EC50 (CNGA2RE:A4RE:B1b; high affinity component (action of CNGB1b), CNGA2RE:A4RE:B1b, Equation 2, +100 mV, read-out: EC50,h) [µM] | EC50 (CNGA2RE:A4RE:B1b; low affinity component, CNGA2RE:A4RE:B1b, Equation 2, +100 mV, read-out: EC50,l) [µM] | maximum contribution of CNGB1b to channel activation (a) (CNGA2RE:A4RE:B1b; of the maximum channel activity generated by all subunits, CNGA2RE:A4RE:B1b) | EC50 (CNGA2:A4:B1b channels; Equation 1) [µM] | H (CNGA2:A4:B1b channels; Hill coefficient) | EC50 ([1]; CNGA2TM, Equation 1, ref Nache et al., 2012) [µM] | EC50 [2] [µM] | Hh (CNGA2RE:A4:B1b channels; Hill coefficient of high affinity component, +100 mV) | H1 (CNGA2RE:A4:B1b channels; Hill coefficient of low affinity component, +100 mV) | contribution of the high-affinity component (a) (CNGA2RE:A4:B1b channels; combined contribution of CNGA4 and CNGB1b) [%] | a (contribution of the high affinity component) (CNGA2RE:A4:B1b channels; fraction, Equation 2) | EC50 (CNGA2RE:A4:B1b channels; high affinity component (CNGA4 and CNGB1b combined), read-out: EC50,h) [µM] | EC50 (CNGA2RE:A4:B1b channels; low affinity component, read-out: EC50,l) [µM] | activation (I/Imax) (CNGA2RE:A4RE:B1b; 10 μM fcGMP, normalized to current at 4 mM cGMP) [%] | activation ([1]; 10 μM fcGMP, homotetrameric CNGA2TM) | Ligand binding to CNGB1b (CNGB1b) | Ligand binding to CNGA4 (CNGA2TM:A4RE)
1 | Nc1nc2c(ncn2[C@@H]2O[C@@H]3COP(=O)(O)O[C@H]3[C@H]2O)c(=O)[nH]1 [cGMP] | 1.2 | 0.07 | 3.6 | 178 | 7.2% and ~ 7% | 0.76 | 2.0 | 10.4 | 607 | 1.05 and 1.1 | 1.2 | 89 | 0.89 | 5.7 | 733 |  |  |  | 
2 | 8-[DY-547]-AET-cGMP [fcGMP] |  |  |  |  |  |  |  |  |  |  |  |  |  |  |  | 1.6 ± 0.4 | negligible activation | − | −
